{
  "source": "patent US20040214785A1",
  "about": "“Surface sanitizing compositions with improved antimicrobial performance” (priority 2003, published 2004)",
  "key": {"S. aureus": {"test_system": "S. aureus", "conditions": "against S. aureus; Johnson et al. 2002; cited from earlier work"}, "[1]": {"conditions": "topically-applied; cited from earlier work"}, "[2]": {"conditions": "cited from earlier work"}, "[3]": {"test_system": "methicillin-resistant Staphylococcus aureus (MRSA)", "experiment": "Bactericidal assay (MBC), subculture of dilutions on TSB agar", "format": "cell-based", "conditions": "challenge with 1×10^4 MRSA", "experimental": "S. aureus maintained as a frozen culture with 10% (v/v) glycerol at −80° C. was thawed and then propagated on trypticase soy broth (TSB) or agar plates at room temperature (R.T.); determinations for Most Probable Number (MPN) in given samples were performed at 37° C., using standard assay techniques.\nTested sanitizers comprised commercially available gel products (i.e., “Brand A” and “Brand B”) from two manufacturers; these gels were comprised substantially of ethanol (60-70% w/w). […] Additional prototype liquid preparations (“Brand C1” and “Brand C2”) were substantially comprised of mixtures of alcohol (60-70% ethanol or isopropanol, w/w) combined with triclosan (approximately 0.04% w/w). Finally, triclosan was added to certain of the commercially available products (Brand B) to yield modified products containing triclosan at a level of approximately 0.04% w/w (“Brand B1”).\nKilling of bacteria at each dilution (i.e., minimum bactericidal concentration, MBC) was determined by removing 5 μL aliquots and subculturing these on the surface of a TSB agar plate. Plates were incubated overnight at 37° C. and observed for growth. Studies were performed at 30 sec, at 5, 10, and 30 min, and at 1, 2, 4, and 8 hours after adding the challenge bacteria."}, "E. coli": {"test_system": "E. coli", "conditions": "against E. coli; Johnson et al. 2002; cited from earlier work"}, "bacteria": {"test_system": "bacteria", "conditions": "MMWR/RR-16; cited from earlier work"}, "[4]": {"test_system": "bacterial counts on hands", "conditions": "Triclosan (0.1%), after a 1-minute hygienic handwash; cited from earlier work"}},
  "data": [
    {"compound": "Oc1cc(Cl)ccc1Oc1ccc(Cl)cc1Cl", "note": "[Triclosan, 2,4,4′-trichloro-2′-hydroxy-diphenyl ether]", "values": [
      {"measurement": "MBC", "setting": "S. aureus", "result": 7.5, "unit": "mg/L"},
      {"measurement": "penetration into human skin", "setting": "[1]", "result": "minimal penetration into human skin"},
      {"measurement": "solubility in water", "setting": "[2]", "result": "substantially insoluble in water"},
      {"measurement": "dilution at which preparation is still bactericidal", "setting": "[3]", "result": "≤ 10", "unit": "fold"},
      {"measurement": "MBC", "setting": "E. coli", "result": 1.3, "unit": "mg/L"},
      {"measurement": "minimum bactericidal concentrations", "setting": "bacteria", "result": "25 to 500", "unit": "mg/L"},
      {"measurement": "reduction of bacterial counts on hands", "setting": "[4]", "result": 2.8, "unit": "log10"}
    ]}
  ]
}
